Test results taken from patent US8883681B2, “Sugarcane harvest aid” (FMC Corporation, priority 2004, dated 2014).

Tested on: sugarcane, variety RB 81-5156 (plant-cane)
Experiment: Evaluation of carfentrazone-ethyl as a sugarcane ripener (field trial, stems harvested 0-45 DAA; % POL, % BRIX, % PURITY)
Format: in vivo
Conditions: average of four replications
Procedure: The following example further illustrates the present invention, but, of course, should not be construed as in any way limiting its scope. The example includes a protocol for the evaluation of certain PPO-inhibiting compounds as ripeners on sugarcane crops, and sets forth certain data indicating the effectiveness of such compounds. Yield is measured in % POL, which is the percent saccharose content in the pressed broth or the cane. Purity and % BRIX (defined as total sugar content including glucose, fructose, saccharose and minerals) are also measures of crop yield, although the saccharose content is of primary concern.
The trial was performed on sugarcane, variety RB 81-5156 (plant-cane). The sugarcane was planted with spacing of 1.40 m between rows, using 30 kg/ha of N; 100 kg/ha of P2O5 and 80 gk/ha of K2O as basic fertilizers, complemented by a covering application of 30 kg/ha of N.
The application of ripeners was performed with pressurized back-pack sprayers, with flat fan nozzle 110.01. The flow was 65 l/ha and the pressure was 35 lb/in^2.
The experimental design used randomized plots with 6 treatments and 4 replications. The size of each experimental plot was 126 m^2 (6 spacing lines of 1.40 m per 15 m of length).
The climatic conditions at the time of the ripener applications were: average temperature of 27° C.; air relative humidity of 73%, wind speed of 4 km/hour.
One linear meter of stems was harvested in each experimental plot at 0 (zero), 15, 30 and 45 days after application (DAA) of the ripener. The sugar was extracted from these stems and submitted for GC and refractometer analysis of percent saccharose, glucose, fructose and minerals corresponding to % POL, % BRIX and % PURITY.
The results, shown as an average of four replications, were compared with results observed in the same trials with trinexapac-ethyl (Moddus).

SMILES: CCOC(=O)C1CC(=O)C(=C(O)C2CC2)C(=O)C1 (stereo not drawn) [trinexapac-ethyl, reference compound]
- % BRIX in Pressed Broth of Sugarcane Crop after Application of Ripeners (250 g ai/ha, 0 DAA): 14.93%
- % POL in Pressed Broth of Sugarcane Crop after Application of Ripeners (250 g ai/ha, 0 DAA): 12.75%
- % POL in the Cane of Sugarcane Crop after Application of Ripeners (250 g ai/ha, 0 DAA): 11.35%
- % PURITY in Pressed Broth of Sugarcane Crop after Application of Ripeners (250 g ai/ha, 0 DAA): 81.53%
- % BRIX in Pressed Broth of Sugarcane Crop after Application of Ripeners (250 g ai/ha, 15 DAA): 15.15%
- % POL in Pressed Broth of Sugarcane Crop after Application of Ripeners (250 g ai/ha, 15 DAA): 14.25%
- % POL in the Cane of Sugarcane Crop after Application of Ripeners (250 g ai/ha, 15 DAA): 12.53%
- % PURITY in Pressed Broth of Sugarcane Crop after Application of Ripeners (250 g ai/ha, 15 DAA): 83.73%
- % BRIX in Pressed Broth of Sugarcane Crop after Application of Ripeners (250 g ai/ha, 30 DAA): 17.85%
- % POL in Pressed Broth of Sugarcane Crop after Application of Ripeners (250 g ai/ha, 30 DAA): 15.80%
- % POL in the Cane of Sugarcane Crop after Application of Ripeners (250 g ai/ha, 30 DAA): 13.45%
- % PURITY in Pressed Broth of Sugarcane Crop after Application of Ripeners (250 g ai/ha, 30 DAA): 85.15%
- % BRIX in Pressed Broth of Sugarcane Crop after Application of Ripeners (250 g ai/ha, 45 DAA): 18.45%
- % POL in Pressed Broth of Sugarcane Crop after Application of Ripeners (250 g ai/ha, 45 DAA): 15.75%
- % POL in the Cane of Sugarcane Crop after Application of Ripeners (250 g ai/ha, 45 DAA): 14.20%
- % PURITY in Pressed Broth of Sugarcane Crop after Application of Ripeners (250 g ai/ha, 45 DAA): 84.78%

SMILES: CCOC(=O)C(Cl)Cc1cc(-n2nc(C)n(C(F)F)c2=O)c(F)cc1Cl (stereo not drawn) [Carfentrazone-ethyl, ethyl α,2-dichloro-5-[4-(difluoromethyl)-4,5-dihydro-3-methyl-5-oxo-1H-1,2,4-triazol-1-yl]-4-fluorobenzenepropanoate]
- % BRIX in Pressed Broth of Sugarcane Crop after Application of Ripeners (30 g ai/ha, 0 DAA): 14.80%
- % POL in Pressed Broth of Sugarcane Crop after Application of Ripeners (30 g ai/ha, 0 DAA): 11.90%
- % POL in the Cane of Sugarcane Crop after Application of Ripeners (30 g ai/ha, 0 DAA): 10.38%
- % PURITY in Pressed Broth of Sugarcane Crop after Application of Ripeners (30 g ai/ha, 0 DAA): 78.48%
- % BRIX in Pressed Broth of Sugarcane Crop after Application of Ripeners (30 g ai/ha, 15 DAA): 15.40%
- % POL in Pressed Broth of Sugarcane Crop after Application of Ripeners (30 g ai/ha, 15 DAA): 12.35%
- % POL in the Cane of Sugarcane Crop after Application of Ripeners (30 g ai/ha, 15 DAA): 10.68%
- % PURITY in Pressed Broth of Sugarcane Crop after Application of Ripeners (30 g ai/ha, 15 DAA): 79.10%
- % BRIX in Pressed Broth of Sugarcane Crop after Application of Ripeners (30 g ai/ha, 30 DAA): 16.15%
- % POL in Pressed Broth of Sugarcane Crop after Application of Ripeners (30 g ai/ha, 30 DAA): 12.75%
- % POL in the Cane of Sugarcane Crop after Application of Ripeners (30 g ai/ha, 30 DAA): 10.75%
- % PURITY in Pressed Broth of Sugarcane Crop after Application of Ripeners (30 g ai/ha, 30 DAA): 79.50%
- % BRIX in Pressed Broth of Sugarcane Crop after Application of Ripeners (30 g ai/ha, 45 DAA): 16.40%
- % POL in Pressed Broth of Sugarcane Crop after Application of Ripeners (30 g ai/ha, 45 DAA): 12.20%
- % POL in the Cane of Sugarcane Crop after Application of Ripeners (30 g ai/ha, 45 DAA): 10.75%
- % PURITY in Pressed Broth of Sugarcane Crop after Application of Ripeners (30 g ai/ha, 45 DAA): 79.35%
- % BRIX in Pressed Broth of Sugarcane Crop after Application of Ripeners (40 g ai/ha, 0 DAA): 14.50%
- % POL in Pressed Broth of Sugarcane Crop after Application of Ripeners (40 g ai/ha, 0 DAA): 12.55%
- % POL in the Cane of Sugarcane Crop after Application of Ripeners (40 g ai/ha, 0 DAA): 10.38%
- % PURITY in Pressed Broth of Sugarcane Crop after Application of Ripeners (40 g ai/ha, 0 DAA): 78.90%
- % BRIX in Pressed Broth of Sugarcane Crop after Application of Ripeners (40 g ai/ha, 15 DAA): 15.50%
- % POL in Pressed Broth of Sugarcane Crop after Application of Ripeners (40 g ai/ha, 15 DAA): 13.18%
- % POL in the Cane of Sugarcane Crop after Application of Ripeners (40 g ai/ha, 15 DAA): 10.63%
- % PURITY in Pressed Broth of Sugarcane Crop after Application of Ripeners (40 g ai/ha, 15 DAA): 80.28%
- % BRIX in Pressed Broth of Sugarcane Crop after Application of Ripeners (40 g ai/ha, 30 DAA): 16.98%
- % POL in Pressed Broth of Sugarcane Crop after Application of Ripeners (40 g ai/ha, 30 DAA): 13.70%
- % POL in the Cane of Sugarcane Crop after Application of Ripeners (40 g ai/ha, 30 DAA): 10.98%
- % PURITY in Pressed Broth of Sugarcane Crop after Application of Ripeners (40 g ai/ha, 30 DAA): 81.20%
- % BRIX in Pressed Broth of Sugarcane Crop after Application of Ripeners (40 g ai/ha, 45 DAA): 16.90%
- % POL in Pressed Broth of Sugarcane Crop after Application of Ripeners (40 g ai/ha, 45 DAA): 13.58%
- % POL in the Cane of Sugarcane Crop after Application of Ripeners (40 g ai/ha, 45 DAA): 11.00%
- % PURITY in Pressed Broth of Sugarcane Crop after Application of Ripeners (40 g ai/ha, 45 DAA): 81.43%
- % BRIX in Pressed Broth of Sugarcane Crop after Application of Ripeners (60 g ai/ha, 0 DAA): 14.60%
- % POL in Pressed Broth of Sugarcane Crop after Application of Ripeners (60 g ai/ha, 0 DAA): 12.55%
- % POL in the Cane of Sugarcane Crop after Application of Ripeners (60 g ai/ha, 0 DAA): 10.63%
- % PURITY in Pressed Broth of Sugarcane Crop after Application of Ripeners (60 g ai/ha, 0 DAA): 79.35%
- % BRIX in Pressed Broth of Sugarcane Crop after Application of Ripeners (60 g ai/ha, 15 DAA): 15.20%
- % POL in Pressed Broth of Sugarcane Crop after Application of Ripeners (60 g ai/ha, 15 DAA): 13.58%
- % POL in the Cane of Sugarcane Crop after Application of Ripeners (60 g ai/ha, 15 DAA): 11.38%
- % PURITY in Pressed Broth of Sugarcane Crop after Application of Ripeners (60 g ai/ha, 15 DAA): 81.85%
- % BRIX in Pressed Broth of Sugarcane Crop after Application of Ripeners (60 g ai/ha, 30 DAA): 17.75%
- % POL in Pressed Broth of Sugarcane Crop after Application of Ripeners (60 g ai/ha, 30 DAA): 14.50%
- % POL in the Cane of Sugarcane Crop after Application of Ripeners (60 g ai/ha, 30 DAA): 12.45%
- % PURITY in Pressed Broth of Sugarcane Crop after Application of Ripeners (60 g ai/ha, 30 DAA): 83.15%
- % BRIX in Pressed Broth of Sugarcane Crop after Application of Ripeners (60 g ai/ha, 45 DAA): 17.45%
- % POL in Pressed Broth of Sugarcane Crop after Application of Ripeners (60 g ai/ha, 45 DAA): 14.35%
- % POL in the Cane of Sugarcane Crop after Application of Ripeners (60 g ai/ha, 45 DAA): 12.38%
- % PURITY in Pressed Broth of Sugarcane Crop after Application of Ripeners (60 g ai/ha, 45 DAA): 83.15%
- % BRIX in Pressed Broth of Sugarcane Crop after Application of Ripeners (80 g ai/ha, 0 DAA): 14.50%
- % POL in Pressed Broth of Sugarcane Crop after Application of Ripeners (80 g ai/ha, 0 DAA): 12.45%
- % POL in the Cane of Sugarcane Crop after Application of Ripeners (80 g ai/ha, 0 DAA): 10.80%
- % PURITY in Pressed Broth of Sugarcane Crop after Application of Ripeners (80 g ai/ha, 0 DAA): 80.05%
- % BRIX in Pressed Broth of Sugarcane Crop after Application of Ripeners (80 g ai/ha, 15 DAA): 15.80%
- % POL in Pressed Broth of Sugarcane Crop after Application of Ripeners (80 g ai/ha, 15 DAA): 14.08%
- % POL in the Cane of Sugarcane Crop after Application of Ripeners (80 g ai/ha, 15 DAA): 11.93%
- % PURITY in Pressed Broth of Sugarcane Crop after Application of Ripeners (80 g ai/ha, 15 DAA): 82.90%
- % BRIX in Pressed Broth of Sugarcane Crop after Application of Ripeners (80 g ai/ha, 30 DAA): 17.90%
- % POL in Pressed Broth of Sugarcane Crop after Application of Ripeners (80 g ai/ha, 30 DAA): 15.05%
- % POL in the Cane of Sugarcane Crop after Application of Ripeners (80 g ai/ha, 30 DAA): 13.25%
- % PURITY in Pressed Broth of Sugarcane Crop after Application of Ripeners (80 g ai/ha, 30 DAA): 84.45%
- % BRIX in Pressed Broth of Sugarcane Crop after Application of Ripeners (80 g ai/ha, 45 DAA): 17.80%
- % POL in Pressed Broth of Sugarcane Crop after Application of Ripeners (80 g ai/ha, 45 DAA): 15.30%
- % POL in the Cane of Sugarcane Crop after Application of Ripeners (80 g ai/ha, 45 DAA): 13.35%
- % PURITY in Pressed Broth of Sugarcane Crop after Application of Ripeners (80 g ai/ha, 45 DAA): 84.05%
- % BRIX in Pressed Broth of Sugarcane Crop after Application of Ripeners (100 g ai/ha, 0 DAA): 14.90%
- % POL in Pressed Broth of Sugarcane Crop after Application of Ripeners (100 g ai/ha, 0 DAA): 12.50%
- % POL in the Cane of Sugarcane Crop after Application of Ripeners (100 g ai/ha, 0 DAA): 10.98%
- % PURITY in Pressed Broth of Sugarcane Crop after Application of Ripeners (100 g ai/ha, 0 DAA): 81.85%
- % BRIX in Pressed Broth of Sugarcane Crop after Application of Ripeners (100 g ai/ha, 15 DAA): 15.30%
- % POL in Pressed Broth of Sugarcane Crop after Application of Ripeners (100 g ai/ha, 15 DAA): 14.70%
- % POL in the Cane of Sugarcane Crop after Application of Ripeners (100 g ai/ha, 15 DAA): 12.25%
- % PURITY in Pressed Broth of Sugarcane Crop after Application of Ripeners (100 g ai/ha, 15 DAA): 83.78%
- % BRIX in Pressed Broth of Sugarcane Crop after Application of Ripeners (100 g ai/ha, 30 DAA): 18.25%
- % POL in Pressed Broth of Sugarcane Crop after Application of Ripeners (100 g ai/ha, 30 DAA): 15.90%
- % POL in the Cane of Sugarcane Crop after Application of Ripeners (100 g ai/ha, 30 DAA): 13.83%
- % PURITY in Pressed Broth of Sugarcane Crop after Application of Ripeners (100 g ai/ha, 30 DAA): 86.05%
- % BRIX in Pressed Broth of Sugarcane Crop after Application of Ripeners (100 g ai/ha, 45 DAA): 18.60%
- % POL in Pressed Broth of Sugarcane Crop after Application of Ripeners (100 g ai/ha, 45 DAA): 15.75%
- % POL in the Cane of Sugarcane Crop after Application of Ripeners (100 g ai/ha, 45 DAA): 13.43%
- % PURITY in Pressed Broth of Sugarcane Crop after Application of Ripeners (100 g ai/ha, 45 DAA): 83.38%
